14 molecules from PubChem BioAssay AID328 (DTP/NCI, 2004) can be followed below.

Where “and” joins values, the source holds several entries; their conditions need not be identical. Identical values can stand only once. Inconclusive results and toxic doses are left out.

In the test the test system is BDF1 mice, P388 leukemia ip, median survival T/C. Nature of the test: NCI In Vivo Anticancer Drug Screen. Data for tumor model P388 Leukemia (intraperitoneal) in B6D2F1 (BDF1) mice. As to conditions: endpoint: median survival time, higher = longer survival. An outline of the steps: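 Reported as T/C, where T is the survival measurement in dosed animals and C the same measurement in vehicle controls.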

The mark [1] stands for this setting: dose: 6.25 mg/kg/injection, schedule: Q01DX009 (ip), vehicle: Klucel (hydroxypropylcellulose) (HPC).
[2] abbreviates: dose: 100.0 mg/kg/injection, schedule: Q04DX003 (ip), vehicle: water.
The mark [3] stands for this setting: dose: 200.0 mg/kg/injection, schedule: Q04DX003 (ip), vehicle: water.
Where [4] appears, read: dose: 400.0 mg/kg/injection, schedule: Q04DX003 (ip), vehicle: water.
Where [5] appears, read: dose: 100.0 mg/kg/injection, schedule: Q01DX009 (ip), vehicle: Klucel (hydroxypropylcellulose) (HPC).
[6] abbreviates: dose: 200.0 mg/kg/injection, schedule: Q01DX009 (ip), vehicle: Klucel (hydroxypropylcellulose) (HPC).
The mark [7] stands for this setting: dose: 400.0 mg/kg/injection, schedule: Q01DX009 (ip), vehicle: Klucel (hydroxypropylcellulose) (HPC).
Where [8] appears, read: dose: 100.0 mg/kg/injection, schedule: Q04DX003 (ip), vehicle: saline.
[9] abbreviates: dose: 100.0 mg/kg/injection, schedule: Q04DX003 (ip), vehicle: saline with Tween-80.
Setting [10] is: dose: 200.0 mg/kg/injection, schedule: Q04DX003 (ip), vehicle: saline with Tween-80.
Setting [11] is: dose: 400.0 mg/kg/injection, schedule: Q04DX003 (ip), vehicle: saline with Tween-80.
Where [12] appears, read: dose: 50.0 mg/kg/injection, schedule: Q01DX009 (ip), vehicle: saline with Tween-80.
Where [13] appears, read: dose: 100.0 mg/kg/injection, schedule: Q01DX009 (ip), vehicle: saline with Tween-80.
Setting [14] is: dose: 200.0 mg/kg/injection, schedule: Q01DX009 (ip), vehicle: saline with Tween-80.

For `CCCCCC(CN(C)C)C(=O)/C=C/c1c(Cl)cccc1Cl` (stereo not given), the T/C (dose: 3.12 mg/kg/injection, schedule: Q04DX003 (ip), vehicle: Klucel (hydroxypropylcellulose) (HPC)) was 104 % of control; the T/C under setting [1] was 110 % of control; the T/C (dose: 6.25 mg/kg/injection, schedule: Q04DX003 (ip), vehicle: Klucel (hydroxypropylcellulose) (HPC)) was 109 % of control; the T/C (dose: 12.5 mg/kg/injection, schedule: Q04DX003 (ip), vehicle: Klucel (hydroxypropylcellulose) (HPC)) was 104 % of control; the T/C (dose: 18.0 mg/kg/injection, schedule: Q04DX003 (ip), vehicle: Klucel (hydroxypropylcellulose) (HPC)) is 105 % of control; the T/C (dose: 28.0 mg/kg/injection, schedule: Q04DX003 (ip), vehicle: Klucel (hydroxypropylcellulose) (HPC)) is 115 % of control. Also, the T/C was 109 % of control (dose: 40.0 mg/kg/injection, schedule: Q01DX001 (ip), vehicle: saline); 90 % of control (dose: 40.0 mg/kg/injection, schedule: Q04DX003 (ip), vehicle: Klucel (hydroxypropylcellulose) (HPC)); 104 % of control (dose: 65.0 mg/kg/injection, schedule: Q01DX001 (ip), vehicle: saline).
In the case of `CC1(C)C2CCC1(C)C1OC(=O)NN=C21` (stereo not given), the T/C is 100 % of control (dose: 12.5 mg/kg/injection, schedule: Q01DX001 (ip), vehicle: saline with Tween-80); 98 % of control (dose: 25.0 mg/kg/injection, schedule: Q01DX001 (ip), vehicle: saline with Tween-80); 103 % of control (dose: 50.0 mg/kg/injection, schedule: Q01DX001 (ip), vehicle: saline with Tween-80).
Turning to `SC1CC[N-]CC1.SC1CC[N-]CC1.[Cl][Pt+2][Cl]`, the T/C was 107 % of control (dose: 50.0 mg/kg/injection, schedule: Q01DX009 (ip), vehicle: water); 91 % of control (dose: 100.0 mg/kg/injection, schedule: Q01DX009 (ip), vehicle: water); 98 % of control under setting [2]; 98 % of control under setting [3]; 96 % of control under setting [4].
Take `Cc1c(O)c([N+](=O)[O-])cc2c1OCOC2`: the T/C is, setting by setting: under setting [5], 95 % of control; under setting [6], 104 % of control; under setting [7], 95 % of control.
Regarding `Cc1ccc2c(c1)CCCN2C`, the T/C is 114 % of control (dose: 25.0 mg/kg/injection, schedule: Q01DX009 (ip), vehicle: saline); 114 % of control (dose: 50.0 mg/kg/injection, schedule: Q01DX009 (ip), vehicle: saline); 104 % of control (dose: 50.0 mg/kg/injection, schedule: Q04DX003 (ip), vehicle: saline); 104 % of control under setting [8].
With `CC(C)OC(CCC#N)c1ccccc1` (stereo not given), the T/C under setting [5] was 100 % of control; the T/C (dose: 100.0 mg/kg/injection, schedule: Q04DX003 (ip), vehicle: Klucel (hydroxypropylcellulose) (HPC)) is 95 % of control; the T/C under setting [6] is 100 % of control; the T/C (dose: 200.0 mg/kg/injection, schedule: Q04DX003 (ip), vehicle: Klucel (hydroxypropylcellulose) (HPC)) is 104 % of control; the T/C (dose: 400.0 mg/kg/injection, schedule: Q04DX003 (ip), vehicle: Klucel (hydroxypropylcellulose) (HPC)) was 109 % of control.
With `CC(C)NC(=O)c1ccccc1-[s+]1c2ccccc2c(=O)n1C(C)C` (stereo not given), the T/C is, setting by setting: under setting [9], 94 % of control; under setting [10], 96 % of control; under setting [11], 96 % of control.
`O/N=c1/cc(-c2cccs2)ss1`: the T/C reads like this: under setting [12], 109 % of control; under setting [13], 104 % of control; under setting [8], 117 % of control; under setting [14], 87 % of control; (dose: 200.0 mg/kg/injection, schedule: Q04DX003 (ip), vehicle: saline) 118 % of control; (dose: 400.0 mg/kg/injection, schedule: Q01DX009 (ip), vehicle: saline with Tween-80) 97 % of control. For the same molecule, the T/C (dose: 400.0 mg/kg/injection, schedule: Q04DX003 (ip), vehicle: saline) is 124 % of control.
For the molecule `CC(=O)O[C@]1(C(C)=O)CC[C@H]2[C@@H]3C[C@H](C)C4=CC(=O)CC[C@]4(C)[C@H]3CC[C@@]21C`, the T/C was 103 % of control (dose: 50.0 mg/kg/injection, schedule: Q01DX009 (ip), vehicle: Klucel (hydroxypropylcellulose) (HPC)); 111 % of control under setting [5]; 110 % of control (dose: 100.0 mg/kg/injection, schedule: Q04DX003 (ip), vehicle: other); 94 % of control and 95 % of control under setting [6]; 100 % of control (dose: 200.0 mg/kg/injection, schedule: Q04DX003 (ip), vehicle: other); 87 % of control under setting [7]. Also, the T/C (dose: 400.0 mg/kg/injection, schedule: Q04DX003 (ip), vehicle: other) was 115 % of control.
As for `COC1=C[C@H](C)[C@H]2C[C@@H]3OC(=O)CC[C@@H]3C[C@]2(C)C1=O`, the T/C was 115 % of control (dose: 2.0 mg/kg/injection, schedule: Q01DX009 (ip), vehicle: saline + alcohol); 106 % of control (dose: 4.0 mg/kg/injection, schedule: Q01DX009 (ip), vehicle: saline + alcohol); 106 % of control (dose: 8.0 mg/kg/injection, schedule: Q01DX009 (ip), vehicle: saline + alcohol); 103 % of control (dose: 16.0 mg/kg/injection, schedule: Q01DX009 (ip), vehicle: saline + alcohol).
In the case of `CCC([NH-])=O.CCC([NH-])=O.[Pt+2]`, the T/C runs as follows: under setting [2], 101 % of control; under setting [3], 101 % of control; under setting [4], 101 % of control.
In the case of `CC(=O)c1cc(CN(CCCl)CCCl)c(O)c(CN(CCCl)CCCl)c1O`, the T/C (dose: 0.05 mg/kg/injection, schedule: Q01DX009 (ip), vehicle: Klucel (hydroxypropylcellulose) (HPC)) was 100 % of control; the T/C (dose: 0.1 mg/kg/injection, schedule: Q01DX009 (ip), vehicle: Klucel (hydroxypropylcellulose) (HPC)) is 120 % of control; the T/C (dose: 0.2 mg/kg/injection, schedule: Q01DX009 (ip), vehicle: Klucel (hydroxypropylcellulose) (HPC)) was 110 % of control; the T/C (dose: 0.4 mg/kg/injection, schedule: Q01DX009 (ip), vehicle: Klucel (hydroxypropylcellulose) (HPC)) is 120 % of control; the T/C (dose: 5.5 mg/kg/injection, schedule: Q01DX009 (ip), vehicle: Klucel (hydroxypropylcellulose) (HPC)) is 162 % of control; the T/C under setting [1] was 118 % of control. The T/C (dose: 8.0 mg/kg/injection, schedule: Q01DX009 (ip), vehicle: Klucel (hydroxypropylcellulose) (HPC)) is 166 % of control; the T/C (dose: 8.3 mg/kg/injection, schedule: Q01DX009 (ip), vehicle: Klucel (hydroxypropylcellulose) (HPC)) is 166 % of control; the T/C (dose: 12.0 mg/kg/injection, schedule: Q01DX009 (ip), vehicle: Klucel (hydroxypropylcellulose) (HPC)) is 183 % of control; the T/C (dose: 12.5 mg/kg/injection, schedule: Q01DX009 (ip), vehicle: Klucel (hydroxypropylcellulose) (HPC)) was 183 % of control and 190 % of control; the T/C (dose: 18.0 mg/kg/injection, schedule: Q01DX009 (ip), vehicle: Klucel (hydroxypropylcellulose) (HPC)) is 250 % of control; the T/C (dose: 25.0 mg/kg/injection, schedule: Q01DX009 (ip), vehicle: Klucel (hydroxypropylcellulose) (HPC)) is 154 % of control.
Consider `COc1ccc(C(=O)c2cccs2)cc1`, for which the T/C under setting [9] is 100 % of control, the T/C under setting [10] is 100 % of control and the T/C under setting [11] was 86 % of control.
As for `NC(=S)S/C=C/C(=O)O`, the T/C runs as follows: under setting [12], 96 % of control; (dose: 50.0 mg/kg/injection, schedule: Q04DX003 (ip), vehicle: saline with Tween-80) 100 % of control; under setting [13], 94 % of control; under setting [9], 107 % of control; under setting [14], 100 % of control; under setting [10], 103 % of control. Moreover, the T/C under setting [11] was 115 % of control.
